Literature values in patent publication EP4241780A1, “ENRICHED POLYPHENOLIC FRACTIONS OF ARONIA EXTRACTS AND USES THEREOF” (Diana, priority 2022, dated 2023).

System: HepG2 cells
Conditions: 100% pure compounds, reference [31], Figure 4

| SMILES | EC50 intracellular antioxidant activity of pure compounds [µg/mL] |
| --- | --- |
| O=c1c(O)c(-c2ccc(O)c(O)c2)oc2cc(O)cc(O)c12 [quercetin] | 7 |
| Oc1ccc(C=Cc2cc(O)cc(O)c2)cc1 [resveratrol] | 14.8 |
